Patent publication US9499550B2 (BRISTOL-MYERS SQUIBB COMPANY, priority 2012, dated 2016)
Read-outs that look alike come from different tables or passages of the source.

Columns and labels:
[1] = tested on: HCV genotype 1a (H77 strain) replicon in HUH-7 cells; test: HCV replicon luciferase reporter assay, genotype 1a; assay type: cell-based; conditions: Hepatitis C virus, Huh-7, 72 h, HCV genotype 1a replicon luciferase, 3 days incubation
Procedure, shortened: (§1)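 Replicon inhibition for both genotypes was measured as Renilla luciferase signal (EnduRen, 7.5 μM final, 2 h) after 3-day, 37° C exposure of replicon-bearing HUH-7 cells in 4% FCS DMEM, 0.5% DMSO. The 1b construct carries S1179I; the 1a H77 construct carries P1496L and S2204I. Twenty-point, 3-fold dilutions were fitted four-parametrically for EC50, and CC50 was taken from multiplexed Cell Titer-Blue.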

[2] = tested on: HCV genotype 1b (Con1) replicon in HUH-7 cells; test: HCV replicon luciferase reporter assay, genotype 1b; assay type: cell-based; conditions: Hepatitis C virus, Huh-7, 72 h, HCV genotype 1b replicon luciferase, 3 days incubation
Procedure, shortened: as §1

| SMILES | EC50 ([1]; read-out: LE_1a (EC50, range)) [µM] | EC50 ([2]; read-out: LE_1b (EC50, range)) [µM] | EC50 ([1]; read-out: LE_1a (EC50)) [µM] | EC50 ([2]; read-out: LE_1b (EC50)) [µM] |
| --- | --- | --- | --- | --- |
| CCOc1nnc(O[C@@H]2C[C@H]3C(=O)N[C@]4(C(=O)NS(=O)(=O)C5(C)CC5)C[C@H]4/C=C\CC[C@H](C)C[C@@H](CC)[C@H](NC(=O)OC(C)(C)C(F)(F)F)C(=O)N3C2)c2ccccc12 [Compound 5048, 1,1,1-trifluoro-2-methylpropan-2-yl((2R,6S,7R,9S,13aS,14aR,16aS,Z)-2-((4-ethoxyphthalazin-1-yl)oxy)-7-ethyl-9-methyl-14a-(((1-methylcyclopropyl)sulfonyl)carbamoyl)-5,16-dioxo-1,2,3,5,6,7,8,9,10,11,13a,14,14a,15,16,16a-hexadecahydrocyclopropa[e]pyrrolo[1,2-a][1,4]diazacyclopentadecin-6-yl)carbamate] | 0.00482 to 0.103 | 0.00482 to 0.103 | – | – |
| CCOc1nnc(O[C@@H]2C[C@H]3C(=O)N[C@]4(C(=O)NS(=O)(=O)C5(C)CC5)C[C@H]4/C=C\CC[C@@H](C)C[C@@H](CC)[C@H](NC(=O)OC(C)(C)C(F)(F)F)C(=O)N3C2)c2ccccc12 [Compound 5049, 1,1,1-trifluoro-2-methylpropan-2-yl((2R,6S,7R,9R,13aS,14aR,16aS,Z)-2-((4-ethoxyphthalazin-1-yl)oxy)-7-ethyl-9-methyl-14a-(((1-methylcyclopropyl)sulfonyl)carbamoyl)-5,16-dioxo-1,2,3,5,6,7,8,9,10,11,13a,14,14a,15,16,16a-hexadecahydrocyclopropa[e]pyrrolo[1,2-a][1,4]diazacyclopentadecin-6-yl)carbamate] | < 0.00546 | < 0.00546 | – | – |
| CCOc1nnc(O[C@@H]2C[C@H]3C(=O)N[C@]4(C(=O)NS(=O)(=O)C5(C)CC5)C[C@H]4/C=C\CC[C@H](C)C[C@@H](CC)[C@H](NC(=O)OC(C)(C)C(C)(F)F)C(=O)N3C2)c2ccccc12 [Compound 5050, 3,3-difluoro-2-methylbutan-2-yl((2R,6S,7R,9S,13aS,14aR,16aS,Z)-2-((4-ethoxyphthalazin-1-yl)oxy)-7-ethyl-9-methyl-14a-(((1-methylcyclopropyl)sulfonyl)carbamoyl)-5,16-dioxo-1,2,3,5,6,7,8,9,10,11,13a,14,14a,15,16,16a-hexadecahydrocyclopropa[e]pyrrolo[1,2-a][1,4]diazacyclopentadecin-6-yl)carbamate] | 0.00482 to 0.103 | 0.00482 to 0.103 | – | – |
| CCOc1nnc(O[C@@H]2C[C@H]3C(=O)N[C@]4(C(=O)NS(=O)(=O)C5(C)CC5)C[C@H]4/C=C\CC[C@@H](C)C[C@@H](CC)[C@H](NC(=O)OC(C)(C)C(C)(F)F)C(=O)N3C2)c2ccccc12 [Compound 5051, 3,3-difluoro-2-methylbutan-2-yl((2R,6S,7R,9R,13aS,14aR,16aS,Z)-2-((4-ethoxyphthalazin-1-yl)oxy)-7-ethyl-9-methyl-14a-(((1-methylcyclopropyl)sulfonyl)carbamoyl)-5,16-dioxo-1,2,3,5,6,7,8,9,10,11,13a,14,14a,15,16,16a-hexadecahydrocyclopropa[e]pyrrolo[1,2-a][1,4]diazacyclopentadecin-6-yl)carbamate] | < 0.00546 | < 0.00546 | – | – |
| CCn1nc(O[C@@H]2C[C@H]3C(=O)N[C@]4(C(=O)NS(=O)(=O)C5(C)CC5)C[C@H]4/C=C\CC[C@H](C)C[C@@H](C)[C@H](NC(=O)OC(C)(C)C(F)(F)F)C(=O)N3C2)c2ccccc2c1=O [Compound 5052, 1,1,1-trifluoro-2-methylpropan-2-yl((2R,6S,7R,9S,13aS,14aR,16aS,Z)-2-((3-ethyl-4-oxo-3,4-dihydrophthalazin-1-yl)oxy)-7,9-dimethyl-14a-(((1-methylcyclopropyl)sulfonyl)carbamoyl)-5,16-dioxo-1,2,3,5,6,7,8,9,10,11,13a,14,14a,15,16,16a-hexadecahydrocyclopropa[e]pyrrolo[1,2-a][1,4]diazacyclopentadecin-6-yl)carbamate] | > 0.0874 | 0.00482 to 0.103 | 0.33 | 0.0762 |
| CCn1nc(O[C@@H]2C[C@H]3C(=O)N[C@]4(C(=O)NS(=O)(=O)C5(C)CC5)C[C@H]4/C=C\CC[C@@H](C)C[C@@H](C)[C@H](NC(=O)OC(C)(C)C(F)(F)F)C(=O)N3C2)c2ccccc2c1=O [Compound 5053, 1,1,1-trifluoro-2-methylpropan-2-yl((2R,6S,7R,9R,13aS,14aR,16aS,Z)-2-((3-ethyl-4-oxo-3,4-dihydrophthalazin-1-yl)oxy)-7,9-dimethyl-14a-(((1-methylcyclopropyl)sulfonyl)carbamoyl)-5,16-dioxo-1,2,3,5,6,7,8,9,10,11,13a,14,14a,15,16,16a-hexadecahydrocyclopropa[e]pyrrolo[1,2-a][1,4]diazacyclopentadecin-6-yl)carbamate] | 0.00482 to 0.103 | < 0.00546 | – | – |
| [2H]C([2H])([2H])C(OC(=O)N[C@@H]1C(=O)N2C[C@H](Oc3nn(CC)c(=O)c4ccccc34)C[C@H]2C(=O)N[C@]2(C(=O)NS(=O)(=O)C3(C)CC3)C[C@H]2/C=C\CC[C@H](C)C[C@H]1C)(C([2H])([2H])[2H])C(F)(F)F [Compound 5054] | > 0.0874 | > 0.0874 | – | – |
| [2H]C([2H])([2H])C(OC(=O)N[C@@H]1C(=O)N2C[C@H](Oc3nn(CC)c(=O)c4ccccc34)C[C@H]2C(=O)N[C@]2(C(=O)NS(=O)(=O)C3(C)CC3)C[C@H]2/C=C\CC[C@@H](C)C[C@H]1C)(C([2H])([2H])[2H])C(F)(F)F [Compound 5055] | 0.00482 to 0.103 | < 0.00546 | – | – |
| CCn1nc(O[C@@H]2C[C@H]3C(=O)N[C@]4(C(=O)NS(=O)(=O)C5(C)CC5)C[C@H]4/C=C\CC[C@H](C)C[C@@H](C)[C@H](NC(=O)O[C@@H]4C[C@@H]5C[C@@H]5C4)C(=O)N3C2)c2ccccc2c1=O [Compound 5056, (1R,3r,5S)-bicyclo[3.1.0]hexan-3-yl((2R,6S,7R,9S,13aS,14aR,16aS,Z)-2-((3-ethyl-4-oxo-3,4-dihydrophthalazin-1-yl)oxy)-7,9-dimethyl-14a-(((1-methylcyclopropyl)sulfonyl)carbamoyl)-5,16-dioxo-1,2,3,5,6,7,8,9,10,11,13a,14,14a,15,16,16a-hexadecahydrocyclopropa[e]pyrrolo[1,2-a][1,4]diazacyclopentadecin-6-yl)carbamate] | > 0.0874 | 0.00482 to 0.103 | 0.256 | 0.061 |
| CCn1nc(O[C@@H]2C[C@H]3C(=O)N[C@]4(C(=O)NS(=O)(=O)C5(C)CC5)C[C@H]4/C=C\CC[C@@H](C)C[C@@H](C)[C@H](NC(=O)O[C@@H]4C[C@@H]5C[C@@H]5C4)C(=O)N3C2)c2ccccc2c1=O [Compound 5057, (1R,3r,5S)-bicyclo[3.1.0]hexan-3-yl((2R,6S,7R,9R,13aS,14aR,16aS,Z)-2-((3-ethyl-4-oxo-3,4-dihydrophthalazin-1-yl)oxy)-7,9-dimethyl-14a-(((1-methylcyclopropyl)sulfonyl)carbamoyl)-5,16-dioxo-1,2,3,5,6,7,8,9,10,11,13a,14,14a,15,16,16a-hexadecahydrocyclopropa[e]pyrrolo[1,2-a][1,4]diazacyclopentadecin-6-yl)carbamate] | < 0.00546 | < 0.00546 | – | – |
| CCn1nc(O[C@@H]2C[C@H]3C(=O)N[C@]4(C(=O)NS(=O)(=O)C5(C)CC5)C[C@H]4/C=C\CC[C@H](C)C[C@@H](C)[C@H](NC(=O)NC(C)(C)C)C(=O)N3C2)c2ccccc2c1=O [Compound 5058, (2R,6S,7R,9S,13aS,14aR,16aS,Z)-6-(3-(tert-butyl)ureido)-2-((3-ethyl-4-oxo-3,4-dihydrophthalazin-1-yl)oxy)-7,9-dimethyl-N-((1-methylcyclopropyl)sulfonyl)-5,16-dioxo-1,2,3,5,6,7,8,9,10,11,13a,14,14a,15,16,16a-hexadecahydrocyclopropa[e]pyrrolo[1,2-a][1,4]diazacyclopentadecine-14a-carboxamide] | > 0.0874 | > 0.0874 | – | – |
| CCn1nc(O[C@@H]2C[C@H]3C(=O)N[C@]4(C(=O)NS(=O)(=O)C5(C)CC5)C[C@H]4/C=C\CC[C@@H](C)C[C@@H](C)[C@H](NC(=O)NC(C)(C)C)C(=O)N3C2)c2ccccc2c1=O [Compound 5059, (2R,6S,7R,9R,13aS,14aR,16aS,Z)-6-(3-(tert-butyl)ureido)-2-((3-ethyl-4-oxo-3,4-dihydrophthalazin-1-yl)oxy)-7,9-dimethyl-N-((1-methylcyclopropyl)sulfonyl)-5,16-dioxo-1,2,3,5,6,7,8,9,10,11,13a,14,14a,15,16,16a-hexadecahydrocyclopropa[e]pyrrolo[1,2-a][1,4]diazacyclopentadecine-14a-carboxamide] | 0.00482 to 0.103 | 0.00482 to 0.103 | – | – |
| CCn1nc(O[C@@H]2C[C@H]3C(=O)N[C@]4(C(=O)NS(=O)(=O)C5(C)CC5)C[C@H]4/C=C\CC[C@H](C)C[C@@H](C)[C@H](NC(=O)c4ccc(N(C)C)cc4)C(=O)N3C2)c2ccccc2c1=O [Compound 5060, (2R,6S,7R,9S,13aS,14aR,16aS,Z)-6-(4-(dimethylamino)benzamido)-2-((3-ethyl-4-oxo-3,4-dihydrophthalazin-1-yl)oxy)-7,9-dimethyl-N-((1-methylcyclopropyl)sulfonyl)-5,16-dioxo-1,2,3,5,6,7,8,9,10,11,13a,14,14a,15,16,16a-hexadecahydrocyclopropa[e]pyrrolo[1,2-a][1,4]diazacyclopentadecine-14a-carboxamide] | > 0.0874 | > 0.0874 | ≥ 1 | 0.95 |
